Here are results for seven compounds from patent publication US20250325676A1, “CAMPTOTHECIN PRODRUG AND PHARMACEUTICAL COMPOSITION THEREOF” (TIANJIN HEMAY ONCOLOGY PHARMACEUTICAL CO., LTD, priority 2022, published 2025).

The subject of one data set is BxPC-3. Description: In vitro inhibition of human tumor cells, BxPC-3, MTT method. It counts as cell-based. The procedure: (§1) The cells were allowed to adhere overnight.
(§2) Adherent cells: Culture medium was aspirated and 100 μl/wells of basal culture (generally refers to medium without fetal bovine serum (FBS) and other additives) containing 0.5 mg/ml MTT were added. The cells were cultured for 3 hours. MTT-containing basal medium was aspirated and 100 μl/wells of DMSO were added to dissolve formazan.
(§3) Unstably adherent cells: Unstably adherent cells were directly added to the MTT solution to achieve the concentration of 0.5 mg/ml and cultured for 3 hours. The ternary solution in an equal volume to the system was added to the system to dissolve the formazan.
(§4) The DMSO concentration was 0.1%.

Another data set has as its system NCI-N87. Description: In vitro inhibition of human tumor cells, NCI-N87, MTT method. It counts as cell-based. A general note: Tetrazolium assays rely on reduction of a dye to a coloured formazan, in cell work by metabolically active cells.
In a further data set the test system is MDA-MB-468. Description: In vitro inhibition of human tumor cells, MDA-MB-468, SRB method. Background: The SRB assay estimates cell density from bound dye.
The next data set deals with LoVo. Description: In vitro inhibition of human tumor cells, LoVo, SRB method. Type of data set: cell-based.
From the text: as §1
(§5) Trichloroacetic acid was removed. […] Excess SRB was removed.
as §4

For the next data set, the system named is human colon cancer SW620. The settings on record: 30 mg/kg i.v. qw × 2; SW620 model.
The test system of another data set is SW620. Description: In vitro inhibition of human tumor cells, SW620, SRB method. It counts as cell-based.
From the text: as §1, §5, §4

In another data set the test system is HCT116. Description: In vitro inhibition of human tumor cells, HCT116, MTT method. It counts as cell-based. The procedure: as §1, §2, §3, §4
Another data set deals with NCI-H460. Description: In vitro inhibition of human tumor cells, NCI-H460, MTT method. It counts as cell-based. The procedure: as §1, §2, §3, §4
Data set [1] concerns human pancreatic cancer BxPC-3. The settings on record: 30 mg/kg i.v. qw × 2; BxPC-3 large tumors after irinotecan.
Data set [2] has as its system human pancreatic cancer BxPC-3. Description: Growth of human pancreatic cancer BxPC-3 in allogeneic transplantation model. It counts as in vivo, nude mice. The settings on record: BxPC-3 model.
The subject of data set [3] is human colon cancer HCT116. Description: Growth of human colon cancer HCT116 in allogeneic transplantation model. Type of data set: in vivo, nude mice.
Data set [4] concerns human colon cancer HCT116. Conditions: 30 mg/kg i.v. qw × 2; HCT116 large tumor after irinotecan. An excerpt:
When the tumor volume was more than 600 mm^3 and stable growth was maintained, the experimental animals were randomly divided by the remainder method and administered according to the size of the tumor volume. […] The subcutaneous tumors were stripped and weighed.
T was the subject and C is the model control.
Tumor volume growth was observed on a regular basis after completion of dosing.

In data set [5] the test system is human small cell lung cancer NCI-H446. Conditions: 20 mg/kg i.v. qw × 2; NCI-H446 model.
[6] abbreviates: No βGU (direct effects of compound on cells).

Read-outs that look alike come from different tables or passages of the source.

A word on the IC50: it is the concentration at which inhibition is half-maximal. Consider “(2S,3S,4S,5R,6S)-6-(3-((1-(6-((4′-((E)-(8-amino-1-hydroxy-5,7-disulfonicnaphthalen-2-yl)diazenyl)-3,3′-dimethoxy-[1,1′-biphenyl]-4-yl)amino)-6-oxohexyl)-1H-1,2,3-triazol-4-yl)methoxy)-4-(((S)-4,11-diethyl-4-hydroxy-3,14-dioxy-3,4,12,14-tetrahydro-1H-pyrano[3′,4′:6,7]indolizino[1,7]quinolin-9-yl)oxy)methyl)phenoxy)-3,4,5-trihydroxytetrahydro-2H-pyran-2-carboxylate trisodium [Example 69]”, for which the 50% inhibitory concentration (IC50) with BxPC-3 (Adding βGU) came to 16 nM; in the data set with BxPC-3 (No βGU), 720 nM; in the data set on NCI-N87 (Adding βGU), 32 nM; with NCI-N87 (No βGU), 350 nM; with MDA-MB-468 (Adding βGU) it was 10 nM; in the data set on MDA-MB-468 (No βGU) it was 88 nM. Besides, the half-maximal inhibitory concentration (IC50) in the data set on LoVo (Adding βGU) was found to be 11 nM; with LoVo (No βGU), 592 nM; in the data set on SW620 (Adding βGU), 7.7 nM; with SW620 (No βGU) it was 361 nM; with HCT116 (Adding βGU (β-glucuronidase)) it was 8.2 nM; in the data set on HCT116 (setting [6]), 181 nM. Also, the concentration for half-maximal inhibition (IC50) came to 13 nM in the data set on NCI-H460 (Adding βGU) and 566 nM in the data set with NCI-H460 (No βGU). In addition, the “T/C (%)” value with human colon cancer SW620 was 1.1%. Further, the “Tumor inhibition rate (%)” value in the data set on human colon cancer SW620 stood at 99.1%.

With “(2S,3S,4S,5R,6S)-6-(3-((1-(6-((4′-((E)-(8-amino-1-hydroxy-5,7-disulfonicnaphthalen-2-yl)diazenyl)-3,3′-dimethyl-[1,1′-biphenyl]-4-yl)amino)-6-oxohexyl)-1H-1,2,3-triazol-4-yl)methoxy)-4-(((S)-4-ethyl-4-hydroxy-3,14-dioxy-3,4,12,14-tetrahydro-1H-pyrano[3′,4′:6,7]indolazino[1,2-b]quinolin-9-yl)oxy)methyl)phenoxy)-3,4,5-trihydroxytetrahydro-2H-pyran-2-carboxylate trisodium [Example 24]”, the concentration for half-maximal inhibition (IC50) amounted to 19 nM in the data set on BxPC-3 (Adding βGU); 1270 nM in the data set with BxPC-3 (No βGU); 61 nM in the data set with NCI-N87 (Adding βGU); 11 nM with MDA-MB-468 (Adding βGU); 171 nM with MDA-MB-468 (No βGU); 18 nM with LoVo (Adding βGU). Moreover, the IC50 was found to be 764 nM in the data set on LoVo (No βGU); 6.5 nM in the data set on SW620 (Adding βGU); 915 nM in the data set on SW620 (No βGU); 14 nM with HCT116 (Adding βGU (β-glucuronidase)); 339 nM in the data set with HCT116 (setting [6]); 39 nM with NCI-H460 (Adding βGU). Further, the half-inhibitory concentration (IC50) in the data set on NCI-H460 (No βGU) stood at 1720 nM. Also, the “inhibition rate at 2 μM” value in the data set with NCI-N87 (No βGU) was 2 μM about 34.4%. For the same compound, the “Relative volume RTV (X ± S.D.)” value in data set [1] is 1.04 ± 0.07; in data set [2] (25 mg/kg i.v. qw × 2) it was 0.46 ± 0.12. Moreover, the “T/C (%)” value in data set [1] was 25.5%; in [2] (25 mg/kg i.v. qw × 2) it was 9.6%. For the same compound, the entries for the “Tumor inhibition rate (%)” value in data set [1] and in data set [2] (25 mg/kg i.v. qw × 2) were 75.3% and 92.0%, respectively. The “Tumor weight (g, X ± S.D.)” value is given as 0.742 ± 0.267 g in [1] and 0.134 ± 0.080 g in data set [2] (25 mg/kg i.v. qw × 2).

As to `CCc1c2c(nc3ccc(OC(=O)N4CCC(N5CCCCC5)CC4)cc13)-c1cc3c(c(=O)n1C2)COC(=O)[C@]3(O)CC` [irinotecan, reference compound], the “Tumor inhibition rate (%)” value in data set [3] (100 mg/kg i.p. qw × 2) is given as 71.6%. Also, the “Final body weight change (%)” value in data set [3] (100 mg/kg i.p. qw × 2, nude mouse) is −10.5%; in data set [2] (100 mg/kg i.p. qw × 2, d 17 data) it was 6.4%.

On to “(2S,3S,4S,5R,6S)-6-(3-((1-(8-((4′-((E)-(8-amino-1-hydroxy-5,7-disulfonicnaphthalen-2-yl)diazenyl)-3,3′-dimethyl-[1,1′-biphenyl]-4-yl)amino)-8-oxooctyl)-1H-1,2,3-triazol-4-yl)methoxy)-4-((((S)-4,11-diethyl-4-hydroxy-3,14-dioxy-3,4,12,14-tetrahydro-1H-pyrano[3′,4′:6,7]indolizino[1,2-b]quinolin-9-yl)oxy)methyl)phenoxy)-3,4,5-trihydroxytetrahydro-2H-pyran-2-carboxylate trisodium [Example 40]”, for which the IC50 came out at 41 nM in the data set on BxPC-3 (Adding βGU); 658 nM in the data set with BxPC-3 (No βGU); 30 nM with NCI-N87 (Adding βGU); 1570 nM in the data set with NCI-N87 (No βGU); 6.9 nM in the data set with MDA-MB-468 (Adding βGU); 217 nM in the data set on MDA-MB-468 (No βGU). The IC50 turned out to be 23 nM in the data set on LoVo (Adding βGU); 302 nM with LoVo (No βGU); 6.9 nM with SW620 (Adding βGU); 244 nM with SW620 (No βGU); 6.1 nM in the data set with HCT116 (Adding βGU (β-glucuronidase)); 218 nM with HCT116 (setting [6]). For the same compound, the IC50 worked out at 15 nM in the data set with NCI-H460 (Adding βGU) and 943 nM with NCI-H460 (No βGU). The “T/C (%)” value in the data set on human colon cancer SW620 is 2.9%. The “Tumor inhibition rate (%)” value with human colon cancer SW620 stood at 97.2%.

On to “(2S,3S,4S,5R,6S)-6-(3-((1-(8-((4′-((E)-(8-amino-1-hydroxy-5,7-disulfonicnaphthalen-2-yl)diazenyl)-[1,1′-biphenyl]-4-yl)amino)-8-oxooctyl)-1H-1,2,3-triazol-4-yl)methoxy)-4-((((S)-4,11-diethyl-4-hydroxy-3,14-dioxo-3,4,12,14-tetrahydro-1H-pyrano[3′,4′: 6,7]indolazino[1,2-b]quinolin-9-yl)oxy)methyl)phenoxy)-3,4,5-trihydroxytetrahydro-2H-pyran-2-carboxylate trisodium [Example 47]”, for which the concentration for half-maximal inhibition (IC50) in the data set on BxPC-3 (Adding βGU) stood at 27 nM; in the data set on BxPC-3 (No βGU) it was 698 nM; in the data set with NCI-N87 (Adding βGU), 62 nM; in the data set on NCI-N87 (No βGU), 1480 nM; in the data set on MDA-MB-468 (Adding βGU), 14 nM; in the data set on MDA-MB-468 (No βGU), 172 nM. Also, the IC50 was determined as 22 nM in the data set on LoVo (Adding βGU); 310 nM in the data set with LoVo (No βGU); 6.7 nM in the data set on SW620 (Adding βGU); 329 nM with SW620 (No βGU); 12 nM in the data set with HCT116 (Adding βGU (β-glucuronidase)); 183 nM with HCT116 (setting [6]). In addition, the IC50 in the data set with NCI-H460 (Adding βGU) amounted to 17 nM; in the data set with NCI-H460 (No βGU), 350 nM. Besides, the “T/C (%)” value with human colon cancer SW620 is 3.5%. Moreover, the “Tumor inhibition rate (%)” value with human colon cancer SW620 was 96.2%.

With “(2S,3S,4S,5R,6S)-6-(3-((1-(2-(2-((4′-(E)-(8-amino-1-hydroxy-5,7-disulfonicnaphthalen-2-yl)diazenyl)-3,3′-dimethyl-[1,1′-biphenyl]-4-yl)amino)-3-oxopropoxy)ethyl)-1H-1,2,3-triazol-4-yl)methoxy)-4-((((S)-4,11-diethyl-4-hydroxy-3,14-dioxy-3,4,12,14-tetrahydro-1H-pyrano[3′,4′:6,7]indolazino[1,2-b]quinolin-9-yl)oxy)methyl)phenoxy)-3,4,5-trihydroxytetrahydro-2H-pyran-2-carboxylate trisodium [Example 101]”, half-maximal inhibition with NCI-N87 (Adding βGU) (IC50) was put at 51 nM. In addition, inhibition with NCI-N87 (No βGU) was half-maximal at 1240 nM (IC50). Moreover, in data set [4], the “Relative volume RTV (X ± S.D.)” value stood at 0.90 ± 0.20; the “T/C (%)” value is 24.2%; the “Tumor inhibition rate (%)” value is on record as 81.6%; the “Tumor weight (g, X ± S.D.)” value worked out at 0.501 ± 0.081 g. In the data set on MDA-MB-468 (Adding βGU), this compound displayed a half-inhibitory concentration (IC50) of 11 nM. In addition, the IC50 in the data set on MDA-MB-468 (No βGU) was found to be 372 nM.

For “(2S,3S,4S,5R,6S)-6-(3-((1-(2-(2-(2-((4′-((E)-(8-amino-1-hydroxy-5,7-disulfonicnaphthalen-2-yl)diazenyl)-3,3′-dimethyl-[1,1′-biphenyl]-4-yl)amino)-2-oxoethoxy)ethoxy)ethyl)-1H-1,2,3-triazol-4-yl)methoxy)-4-(((S)-4,11-diethyl-4-hydroxy-3,14-dioxo-3,4,12,14-tetrahydro-1H-pyrano[3′,4′:6,7]indolazino[1,2-b]quinolin-9-yl)oxy)methyl)phe noxy)-3,4,5-trihydroxytetrahydro-2H-pyran-2-carboxylate trisodium [Example 54]”, the “T/C (%)” value in data set [3] (10 mg/kg i.v. qw × 2) is recorded as 27.0%; in data set [5], 8.9%. For the same compound, the entries for the “Tumor inhibition rate (%)” value in [3] (10 mg/kg i.v. qw × 2) and in data set [5] were 74.4% and 90.5%, respectively. The IC50 with BxPC-3 (Adding βGU) worked out at 8.8 nM; with BxPC-3 (No βGU), 638 nM; in the data set on NCI-N87 (Adding βGU), 38 nM; with MDA-MB-468 (Adding βGU), 6.8 nM; in the data set on MDA-MB-468 (No βGU), 217 nM; in the data set on LoVo (Adding βGU), 9.3 nM. For the same compound, the IC50 is 275 nM in the data set with LoVo (No βGU); 15 nM in the data set on SW620 (Adding βGU); 549 nM in the data set on SW620 (No βGU); 13 nM in the data set on HCT116 (Adding βGU (β-glucuronidase)); 259 nM with HCT116 (setting [6]); 11 nM in the data set on NCI-H460 (Adding βGU). It took 360 nM to reach half-maximal inhibition in the data set with NCI-H460 (No βGU) (IC50). For the same compound, the “inhibition rate at 2 μM” value in the data set on NCI-N87 (No βGU) was found to be 2 μM about 46.1%. Besides, the “Relative volume RTV (X ± S.D.)” value in [5] was determined as 0.61 ± 0.48. In addition, the “Tumor weight (g, X ± S.D.)” value in data set [5] is on record as 0.093 ± 0.080 g.
